Experiment in all cases: radiometric GDP[…]mannose transfer, membrane fraction, organic-phase counting
Common to all, as to assay type: biochemical
What all share (settings): GDP[14C]mannose co-substrate, 10 mM MgCl2, 0.1% Nonidet P-40, pH 7.4, 30 °C, 5 min; 50 µL assay (amount, not concentration)

Assay [1] addresses T1, TrDPMS-1,3 (T. reesei Dpm1,3 expressed in S. cerevisiae) (Trichoderma reesei, UniProt G0R8U7).
T1 construct: dpm1Tr (p415 GPD LEU) and dpm3Tr (pESC-URA) in S. cerevisiae dpm1dr∆ mutant; yeast membrane fraction; Dpm2 omitted; with Dolichol-phosphate mannosyltransferase subunit 3

Assay [2] addresses T2, TrDPMS (DPMS from T. reesei) (Trichoderma reesei, UniProt G0R8U7).
T2 construct: gene dpm1; native Dpm1/Dpm2/Dpm3 complex in the membrane fraction of T. reesei, not purified; with Dolichol phosphate-mannose biosynthesis regulatory protein; Dolichol-phosphate mannosyltransferase subunit 3

Assay [3] concerns the target T3, ScDPMS (DPMS from S. cerevisiae) (Saccharomyces cerevisiae, UniProt P14020).
T3 construct: gene DPM1; native enzyme in yeast membrane fraction, not purified; Type I, exclusively Dpm1 subunit
T3 sequence (P14020 2-267): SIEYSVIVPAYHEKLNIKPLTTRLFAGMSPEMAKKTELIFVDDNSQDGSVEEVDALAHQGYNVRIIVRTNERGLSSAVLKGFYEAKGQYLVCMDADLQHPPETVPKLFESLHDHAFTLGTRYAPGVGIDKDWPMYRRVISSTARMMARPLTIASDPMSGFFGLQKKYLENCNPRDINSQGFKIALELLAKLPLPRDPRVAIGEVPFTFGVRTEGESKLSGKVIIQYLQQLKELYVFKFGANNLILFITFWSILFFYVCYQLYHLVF

T1 sequence (G0R8U7 entry or part of it): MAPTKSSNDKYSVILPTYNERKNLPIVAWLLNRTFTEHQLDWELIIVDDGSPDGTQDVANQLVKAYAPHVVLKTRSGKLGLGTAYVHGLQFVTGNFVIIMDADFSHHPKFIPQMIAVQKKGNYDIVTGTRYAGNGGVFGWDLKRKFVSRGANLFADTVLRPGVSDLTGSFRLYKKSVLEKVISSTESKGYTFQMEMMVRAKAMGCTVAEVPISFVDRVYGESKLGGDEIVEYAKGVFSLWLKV
T1 sequence (C6KF57 entry or part of it, further chain): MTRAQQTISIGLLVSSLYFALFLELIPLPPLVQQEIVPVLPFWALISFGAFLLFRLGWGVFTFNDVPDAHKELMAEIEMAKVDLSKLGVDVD
T2 sequence (G0R8U7 1-243): as the sequence (G0R8U7 entry or part of it) above
T2 sequence (C6KF57 1-92 partner): as the sequence (C6KF57 entry or part of it, further chain) above
T2 sequence (C6KF56 1-80 partner): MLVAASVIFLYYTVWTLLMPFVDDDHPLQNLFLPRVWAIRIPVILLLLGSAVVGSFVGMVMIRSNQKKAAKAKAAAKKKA

Consider `CC(C)=CCC/C(C)=C/CC/C(C)=C/CC/C(C)=C\CC/C(C)=C\CC/C(C)=C\CC/C(C)=C\CC/C(C)=C\CC/C(C)=C\CC/C(C)=C\CCC(C)CCOP(=O)(O)O` (stereo not drawn) [Dol-P11], for which the “S. cerevisiae / Km” value in assay [1] and in assay [3] was 730 ng throughout. Moreover, in assay [2], the “T. reesei / Km” value was found to be 3500 ng.

The values are drawn from publication PMC6628320, “Poly-Saturated Dolichols from Filamentous Fungi Modulate Activity of Dolichol-Dependent Glycosyltransferase and Physical Properties of Membranes” (International Journal of Molecular Sciences, 2019).
